How the values were obtained:
barnyard grass [1] = assay: Test Example 4: herbicidal effect by soil treatment (Table 19, symbol H); type: in vivo, barnyard grass (Echinochloa crus-galli)
How it was run: (§1)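 In this soil treatment, the formulated compound reached the seeds only through the soil: seeds were buried about 1.5 cm deep in sterilized diluvial soil, then the diluted emulsion was sprayed over the surface. After three weeks at 25° C. to 30° C. in a greenhouse, effects were graded on criteria from an earlier test.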

velvetleaf [2] = assay: Test Example 4: herbicidal effect by soil treatment (Table 19, symbol M); type: in vivo, velvetleaf (Abutilon theophrasti)
How it was run: as §1

wild oat [3] = assay: Test Example 4: herbicidal effect by soil treatment (Table 19, symbol I); type: in vivo, wild oat (Avena fatua)
How it was run: as §1

late watergrass = assay: Test Example 1: herbicidal activity, application before weed generation under submerged conditions (Table 16, symbol A); type: in vivo, late watergrass (Echinochloa oryzicola); conditions: 320 g/ha applied herbicide
How it was run: (§2)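 Submerged Wagner pots (alluvial soil, 4 cm water) sown with weed seeds and planted with 2.5-leaf rice seedlings; emulsifiable concentrate diluted in water applied to water surface on sowing day. Held in greenhouse at 25-30 °C; injury scored 0-5 by herbicidal rate after three weeks.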

wild oat [4] = assay: Test Example 5: herbicidal effect by foliage application, plastic box (Table 20, symbol I); type: in vivo, wild oat (Avena fatua); conditions: foliage application
How it was run: (§3)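 Plants were sown into sterilized diluvial soil under about 1.5 cm cover and kept in a greenhouse at 25° C. to 30° C. Fourteen days on, foliage received an even spray of the diluted emulsion. Herbicidal or crop effect was judged three weeks afterwards.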

lambsquarters [5] = assay: Test Example 5: herbicidal effect by foliage application, plastic box (Table 20, symbol O); type: in vivo, lambsquarters (Chenopodium album); conditions: foliage application
How it was run: as §3

velvetleaf [6] = assay: Test Example 5: herbicidal effect by foliage application, plastic box (Table 20, symbol M); type: in vivo, velvetleaf (Abutilon theophrasti); conditions: foliage application
How it was run: as §3

Italian ryegrass [7] = assay: Test Example 4: herbicidal effect by soil treatment (Table 19, symbol K); type: in vivo, Italian ryegrass (Lolium multiflorum)
How it was run: as §1

barnyard grass [8] = assay: Test Example 5: herbicidal effect by foliage application, plastic box (Table 20, symbol H); type: in vivo, barnyard grass (Echinochloa crus-galli); conditions: foliage application
How it was run: as §3

windgrass [9] = assay: Test Example 4: herbicidal effect by soil treatment (Table 19, symbol L); type: in vivo, windgrass (Apera spica-venti)
How it was run: as §1

windgrass [10] = assay: Test Example 5: herbicidal effect by foliage application, plastic box (Table 20, symbol L); type: in vivo, windgrass (Apera spica-venti); conditions: foliage application
How it was run: as §3

southern crabgrass [11] = assay: Test Example 4: herbicidal effect by soil treatment (Table 19, symbol F); type: in vivo, southern crabgrass (Digitaria ciliaris)
How it was run: as §1

Chinese sprangletop = assay: Test Example 3: herbicidal effect by foliage application, Wagner pot (Table 18, symbol D); type: in vivo, chinese sprangletop (Leptochloa chinensis); conditions: 320 g/ha
How it was run: (§4)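 Plants were sown in alluvial soil held under 0.1–0.5 cm standing water and grown 14 days in a greenhouse at 25–30 °C. An emulsifiable formulation, water-diluted to the set dose, was then sprayed onto the foliage, and effects were scored three weeks later using previously defined criteria.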

southern crabgrass [12] = assay: Test Example 5: herbicidal effect by foliage application, plastic box (Table 20, symbol F); type: in vivo, southern crabgrass (Digitaria ciliaris); conditions: foliage application
How it was run: as §3

chickweed [13] = assay: Test Example 4: herbicidal effect by soil treatment (Table 19, symbol P); type: in vivo, common chickweed (Stellaria media)
How it was run: as §1

persian speedwell [14] = assay: Test Example 4: herbicidal effect by soil treatment (Table 19, symbol R); type: in vivo, Persian speedwell (Veronica persica)
How it was run: as §1

barnyard grass [15] = assay: Test Example 3: herbicidal effect by foliage application, Wagner pot (Table 18, symbol H); type: in vivo, barnyard grass (Echinochloa crus-galli); conditions: 320 g/ha
How it was run: as §4

redroot pigweed [16] = assay: Test Example 5: herbicidal effect by foliage application, plastic box (Table 20, symbol N); type: in vivo, redroot pigweed (Amaranthus retroflexus); conditions: foliage application
How it was run: as §3

redroot pigweed [17] = assay: Test Example 4: herbicidal effect by soil treatment (Table 19, symbol N); type: in vivo, redroot pigweed (Amaranthus retroflexus)
How it was run: as §1

persian speedwell [18] = assay: Test Example 5: herbicidal effect by foliage application, plastic box (Table 20, symbol R); type: in vivo, Persian speedwell (Veronica persica); conditions: foliage application
How it was run: as §3

rice flat sedge = assay: Test Example 3: herbicidal effect by foliage application, Wagner pot (Table 18, symbol E); type: in vivo, rice flat sedge (Cyperus iria); conditions: 320 g/ha
How it was run: as §4

blackgrass [19] = assay: Test Example 5: herbicidal effect by foliage application, plastic box (Table 20, symbol J); type: in vivo, blackgrass (Alopecurus myosuroides); conditions: foliage application
How it was run: as §3

chickweed [20] = assay: Test Example 5: herbicidal effect by foliage application, plastic box (Table 20, symbol P); type: in vivo, common chickweed (Stellaria media); conditions: foliage application
How it was run: as §3

oval-leafed pondweed = assay: Test Example 1: herbicidal activity, application before weed generation under submerged conditions (Table 16, symbol C); type: in vivo, oval-leafed pondweed (Monochoria vaginalis); conditions: 320 g/ha applied herbicide
How it was run: as §2

lambsquarters [21] = assay: Test Example 4: herbicidal effect by soil treatment (Table 19, symbol O); type: in vivo, lambsquarters (Chenopodium album)
How it was run: as §1

green foxtail [22] = assay: Test Example 5: herbicidal effect by foliage application, plastic box (Table 20, symbol G); type: in vivo, green foxtail (Setaria viridis); conditions: foliage application
How it was run: as §3

green foxtail [23] = assay: Test Example 4: herbicidal effect by soil treatment (Table 19, symbol G); type: in vivo, green foxtail (Setaria viridis)
How it was run: as §1

Japanese bulrush = assay: Test Example 1: herbicidal activity, application before weed generation under submerged conditions (Table 16, symbol B); type: in vivo, Japanese bulrush (Schoenoplectus juncoides); conditions: 320 g/ha applied herbicide
How it was run: as §2

blackgrass [24] = assay: Test Example 4: herbicidal effect by soil treatment (Table 19, symbol J); type: in vivo, blackgrass (Alopecurus myosuroides)
How it was run: as §1

Italian ryegrass [25] = assay: Test Example 5: herbicidal effect by foliage application, plastic box (Table 20, symbol K); type: in vivo, Italian ryegrass (Lolium multiflorum); conditions: foliage application
How it was run: as §3

[26] = AAH 320 g/ha, three weeks after application
[27] = 320 g/ha, evaluated three weeks after application

COCOc1c(C)nn(C)c(=O)c1-c1c(-c2ccc(OCc3ccccc3)cc2)sc2ccccc12 [1-135]
H: barnyard grass, herbicidal effect rating (barnyard grass [1]; AAH 320 g/ha): 0 (Herbicidal rate of 5% or less (almost no effect)) | M: velvetleaf, herbicidal effect rating (velvetleaf [2]; AAH 320 g/ha): 0 (Herbicidal rate of 5% or less (almost no effect)) | I: wild oat, herbicidal effect rating (wild oat [3]; AAH 320 g/ha): 0 (Herbicidal rate of 5% or less (almost no effect)) | Herbicidal effect on A: late watergrass (grade 0-5) (late watergrass): 4 (Herbicidal rate of 70% or more and less than 90%) | I: wild oat, herbicidal effect (wild oat [4]; [26]): 0 (Herbicidal rate of 5% or less (almost no effect)) | O: lambsquarters, herbicidal effect (lambsquarters [5]; [26]): 5 (Herbicidal rate of 90% or more (almost completely withered)) | M: velvetleaf, herbicidal effect (velvetleaf [6]; [26]): 2 (Herbicidal rate of 20% or more and less than 40%) | K: Italian ryegrass, herbicidal effect rating (Italian ryegrass [7]; AAH 320 g/ha): 0 (Herbicidal rate of 5% or less (almost no effect)) | H: barnyard grass, herbicidal effect (barnyard grass [8]; [26]): 1 (Herbicidal rate of 5% or more and less than 20%) | L: windgrass, herbicidal effect rating (windgrass [9]; AAH 320 g/ha): 0 (Herbicidal rate of 5% or less (almost no effect)) | L: windgrass, herbicidal effect (windgrass [10]; [26]): 0 (Herbicidal rate of 5% or less (almost no effect)) | F: southern crabgrass, herbicidal effect rating (southern crabgrass [11]; AAH 320 g/ha): 2 (Herbicidal rate of 20% or more and less than 40%) | herbicidal effect on D (Chinese sprangletop), rating 0-5 (Chinese sprangletop): 3 (Herbicidal rate of 40% or more and less than 70%) | F: southern crabgrass, herbicidal effect (southern crabgrass [12]; [26]): 0 (Herbicidal rate of 5% or less (almost no effect)) | P: chickweed, herbicidal effect rating (chickweed [13]; AAH 320 g/ha): 0 (Herbicidal rate of 5% or less (almost no effect)) | R: persian speedwell, herbicidal effect rating (persian speedwell [14]; AAH 320 g/ha): 3 (Herbicidal rate of 40% or more and less than 70%) | herbicidal effect on H (barnyard grass), rating 0-5 (barnyard grass [15]): 2 (Herbicidal rate of 20% or more and less than 40%) | N: redroot pigweed, herbicidal effect (redroot pigweed [16]; [26]): 5 (Herbicidal rate of 90% or more (almost completely withered)) | N: redroot pigweed, herbicidal effect rating (redroot pigweed [17]; AAH 320 g/ha): 0 (Herbicidal rate of 5% or less (almost no effect)) | R: persian speedwell, herbicidal effect (persian speedwell [18]; [26]): 4 (Herbicidal rate of 70% or more and less than 90%) | herbicidal effect on E (rice flat sedge), rating 0-5 (rice flat sedge): 3 (Herbicidal rate of 40% or more and less than 70%) | J: blackgrass, herbicidal effect (blackgrass [19]; [26]): 0 (Herbicidal rate of 5% or less (almost no effect)) | P: chickweed, herbicidal effect (chickweed [20]; [26]): 5 (Herbicidal rate of 90% or more (almost completely withered)) | Herbicidal effect on C: oval-leafed pondweed (grade 0-5) (oval-leafed pondweed): 3 (Herbicidal rate of 40% or more and less than 70%) | O: lambsquarters, herbicidal effect rating (lambsquarters [21]; AAH 320 g/ha): 0 (Herbicidal rate of 5% or less (almost no effect)) | G: green foxtail, herbicidal effect (green foxtail [22]; [26]): 4 (Herbicidal rate of 70% or more and less than 90%) | G: green foxtail, herbicidal effect rating (green foxtail [23]; AAH 320 g/ha): 0 (Herbicidal rate of 5% or less (almost no effect)) | Herbicidal effect on B: Japanese bulrush (grade 0-5) (Japanese bulrush): 3 (Herbicidal rate of 40% or more and less than 70%) | J: blackgrass, herbicidal effect rating (blackgrass [24]; AAH 320 g/ha): 0 (Herbicidal rate of 5% or less (almost no effect)) | K: Italian ryegrass, herbicidal effect (Italian ryegrass [25]; [26]): 0 (Herbicidal rate of 5% or less (almost no effect))

CSCCOc1ccc(-c2sc3ccc(F)cc3c2-c2c(O)c(C)nn(C)c2=O)cc1 [2-058]
herbicidal effect rating, H: barnyard grass (barnyard grass [1]; 320 g/ha): 1 (Herbicidal rate of 5% or more and less than 20%) | herbicidal effect rating, M: velvetleaf (velvetleaf [2]; 320 g/ha): 3 (Herbicidal rate of 40% or more and less than 70%) | herbicidal effect rating, I: wild oat (wild oat [3]; 320 g/ha): 0 (Herbicidal rate of 5% or less (almost no effect)) | Herbicidal effect on A: late watergrass (grade 0-5) (late watergrass): 0 (Herbicidal rate of 5% or less (almost no effect)) | herbicidal effect on I: wild oat (wild oat [4]; [27]): 5 (Herbicidal rate of 90% or more (almost completely withered)) | herbicidal effect on O: lambsquarters (lambsquarters [5]; [27]): 5 (Herbicidal rate of 90% or more (almost completely withered)) | herbicidal effect on M: velvetleaf (velvetleaf [6]; [27]): 5 (Herbicidal rate of 90% or more (almost completely withered)) | herbicidal effect rating, K: Italian ryegrass (Italian ryegrass [7]; 320 g/ha): 4 (Herbicidal rate of 70% or more and less than 90%) | herbicidal effect on H: barnyard grass (barnyard grass [8]; [27]): 5 (Herbicidal rate of 90% or more (almost completely withered)) | herbicidal effect rating, L: windgrass (windgrass [9]; 320 g/ha): 4 (Herbicidal rate of 70% or more and less than 90%) | herbicidal effect on L: windgrass (windgrass [10]; [27]): 5 (Herbicidal rate of 90% or more (almost completely withered)) | herbicidal effect rating, F: southern crabgrass (southern crabgrass [11]; 320 g/ha): 5 (Herbicidal rate of 90% or more (almost completely withered)) | herbicidal effect on D (Chinese sprangletop), rating 0-5 (Chinese sprangletop): 5 (Herbicidal rate of 90% or more (almost completely withered)) | herbicidal effect on F: southern crabgrass (southern crabgrass [12]; [27]): 5 (Herbicidal rate of 90% or more (almost completely withered)) | herbicidal effect rating, P: chickweed (chickweed [13]; 320 g/ha): 3 (Herbicidal rate of 40% or more and less than 70%) | herbicidal effect rating, R: persian speedwell (persian speedwell [14]; 320 g/ha): 4 (Herbicidal rate of 70% or more and less than 90%) | herbicidal effect on H (barnyard grass), rating 0-5 (barnyard grass [15]): 5 (Herbicidal rate of 90% or more (almost completely withered)) | herbicidal effect on N: redroot pigweed (redroot pigweed [16]; [27]): 5 (Herbicidal rate of 90% or more (almost completely withered)) | herbicidal effect rating, N: redroot pigweed (redroot pigweed [17]; 320 g/ha): 5 (Herbicidal rate of 90% or more (almost completely withered)) | herbicidal effect on R: persian speedwell (persian speedwell [18]; [27]): 5 (Herbicidal rate of 90% or more (almost completely withered)) | herbicidal effect on E (rice flat sedge), rating 0-5 (rice flat sedge): 5 (Herbicidal rate of 90% or more (almost completely withered)) | herbicidal effect on J: blackgrass (blackgrass [19]; [27]): 5 (Herbicidal rate of 90% or more (almost completely withered)) | herbicidal effect on P: chickweed (chickweed [20]; [27]): 5 (Herbicidal rate of 90% or more (almost completely withered)) | Herbicidal effect on C: oval-leafed pondweed (grade 0-5) (oval-leafed pondweed): 0 (Herbicidal rate of 5% or less (almost no effect)) | herbicidal effect rating, O: lambsquarters (lambsquarters [21]; 320 g/ha): 5 (Herbicidal rate of 90% or more (almost completely withered)) | herbicidal effect on G: green foxtail (green foxtail [22]; [27]): 5 (Herbicidal rate of 90% or more (almost completely withered)) | herbicidal effect rating, G: green foxtail (green foxtail [23]; 320 g/ha): 4 (Herbicidal rate of 70% or more and less than 90%) | Herbicidal effect on B: Japanese bulrush (grade 0-5) (Japanese bulrush): 2 (Herbicidal rate of 20% or more and less than 40%) | herbicidal effect rating, J: blackgrass (blackgrass [24]; 320 g/ha): 5 (Herbicidal rate of 90% or more (almost completely withered)) | herbicidal effect on K: Italian ryegrass (Italian ryegrass [25]; [27]): 5 (Herbicidal rate of 90% or more (almost completely withered))

— patent publication US20230085307A1, “PYRIDAZINONE COMPOUND AND HERBICIDE” (NISSAN CHEMICAL CORPORATION, priority 2019, published 2023)
